Measurements: ChEMBL document CHEMBL1201862, “PubChem BioAssay data set” (2004)
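Test compounds were applied to cells in 96-well plates for 48 hours at 5 doses. At the GI50, growth is halved.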 Calls of active or inactive are those of the source. No stated cut-off is given here; in the data, active = GI50 up to about 1.1 µM and inactive = higher.

Legend:
Assay in all cases: NCI tumour cell line growth inhibition, 48 h
EKVX = system: EKVX
RPMI-8226 = system: RPMI-8226
HOP-62 = system: HOP-62
NCI-H226 = system: NCI-H226
OVCAR-4 = system: OVCAR-4
UO-31 = system: UO-31
NCI-H522 = system: NCI-H522
COLO 205 = system: COLO 205
NCI/ADR-RES = system: NCI/ADR-RES
ACHN = system: ACHN
A549 = system: A549
M14 = system: M14
U-251 = system: U-251
SW-620 = system: SW-620
RXF 393 = system: RXF 393
SF-268 = system: SF-268
DU-145 = system: DU-145
TK-10 = system: TK-10
MDA-MB-435 = system: MDA-MB-435
OVCAR-5 = system: OVCAR-5
MDA-N = system: MDA-N
MOLT-4 = system: MOLT-4
K562 = system: K562
NCI-H460 = system: NCI-H460
KM12 = system: KM12
NCI-H23 = system: NCI-H23
SK-MEL-5 = system: SK-MEL-5
LOX IMVI = system: LOX IMVI
MCF7 = system: MCF7
HL-60 = system: HL-60
HT-29 = system: HT-29
SK-MEL-2 = system: SK-MEL-2
PC-3 = system: PC-3
OVCAR-3 = system: OVCAR-3
SN12C = system: SN12C
HCC 2998 = system: HCC 2998
SF-539 = system: SF-539
HCT-116 = system: HCT-116
OVCAR-8 = system: OVCAR-8
SNB-19 = system: SNB-19
UACC-257 = system: UACC-257
IGROV-1 = system: IGROV-1
786-0 = system: 786-0
HCT-15 = system: HCT-15
Hs-578T = system: Hs-578T
BT-549 = system: BT-549
SF-295 = system: SF-295
CAKI-1 = system: CAKI-1
T47D = system: T47D
SK-OV-3 = system: SK-OV-3
MDA-MB-231 = system: MDA-MB-231
UACC-62 = system: UACC-62
HOP-92 = system: HOP-92
SK-MEL-28 = system: SK-MEL-28
Malme-3M = system: Malme-3M
CCRF-CEM = system: CCRF-CEM
SNB-75 = system: SNB-75
A498 = system: A498

SMILES: C=CCNC(=S)N/C=C(/C(C)=O)C(=O)Nc1ccccc1C
- GI50 (EKVX): > 100 µM (inactive)
- GI50 (RPMI-8226): 4.76 µM (inactive)
- GI50 (HOP-62): > 100 µM (inactive)
- GI50 (NCI-H226): > 100 µM (inactive)
- GI50 (OVCAR-4): > 100 µM (inactive)
- GI50 (UO-31): > 100 µM (inactive)
- GI50 (NCI-H522): > 100 µM (inactive)
- GI50 (COLO 205): > 100 µM (inactive)
- GI50 (NCI/ADR-RES): > 100 µM (inactive)
- GI50 (ACHN): > 100 µM (inactive)
- GI50 (A549): > 100 µM (inactive)
- GI50 (M14): > 100 µM (inactive)
- GI50 (U-251): > 100 µM (inactive)
- GI50 (SW-620): > 100 µM (inactive)
- GI50 (RXF 393): > 100 µM (inactive)
- GI50 (SF-268): > 100 µM (inactive)
- GI50 (DU-145): > 100 µM (inactive)
- GI50 (TK-10): > 100 µM (inactive)
- GI50 (MDA-MB-435): > 100 µM (inactive)
- GI50 (OVCAR-5): > 100 µM (inactive)
- GI50 (MDA-N): > 100 µM (inactive)
- GI50 (MOLT-4): > 100 µM (inactive)
- GI50 (K562): > 100 µM (inactive)
- GI50 (NCI-H460): > 100 µM (inactive)
- GI50 (KM12): > 100 µM (inactive)
- GI50 (NCI-H23): > 100 µM (inactive)
- GI50 (SK-MEL-5): > 100 µM (inactive)
- GI50 (LOX IMVI): > 100 µM (inactive)
- GI50 (MCF7): > 100 µM (inactive)
- GI50 (HL-60): > 100 µM (inactive)
- GI50 (HT-29): > 100 µM (inactive)
- GI50 (SK-MEL-2): > 100 µM (inactive)
- GI50 (PC-3): > 100 µM (inactive)
- GI50 (OVCAR-3): > 100 µM (inactive)
- GI50 (SN12C): > 100 µM (inactive)
- GI50 (HCC 2998): > 100 µM (inactive)
- GI50 (SF-539): > 100 µM (inactive)
- GI50 (HCT-116): > 100 µM (inactive)
- GI50 (OVCAR-8): > 100 µM (inactive)
- GI50 (SNB-19): > 100 µM (inactive)
- GI50 (UACC-257): > 100 µM (inactive)
- GI50 (IGROV-1): > 100 µM (inactive)
- GI50 (786-0): > 100 µM (inactive)
- GI50 (HCT-15): > 100 µM
- GI50 (Hs-578T): > 100 µM (inactive)
- GI50 (BT-549): > 100 µM (inactive)
- GI50 (SF-295): > 100 µM (inactive)
- GI50 (CAKI-1): > 100 µM (inactive)
- GI50 (T47D): > 100 µM (inactive)
- GI50 (SK-OV-3): > 100 µM (inactive)
- GI50 (MDA-MB-231): > 100 µM (inactive)
- GI50 (UACC-62): > 100 µM (inactive)

SMILES: CN(C)CCCN1c2ccc([N+](=O)[O-])cc2CCc2cc([N+](=O)[O-])ccc21
- GI50 (HOP-92): 5.41 µM (inactive)
- GI50 (EKVX): 15.2 µM (inactive)
- GI50 (RPMI-8226): 15.5 µM (inactive)
- GI50 (HOP-62): 12.5 µM (inactive)
- GI50 (NCI-H226): 15.7 µM (inactive)
- GI50 (UO-31): 12 µM (inactive)
- GI50 (NCI-H522): 17.4 µM (inactive)
- GI50 (COLO 205): 14.2 µM (inactive)
- GI50 (NCI/ADR-RES): 16.4 µM (inactive)
- GI50 (ACHN): 15.6 µM (inactive)
- GI50 (A549): 16.4 µM (inactive)
- GI50 (M14): 14.5 µM (inactive)
- GI50 (U-251): 13.7 µM (inactive)
- GI50 (SW-620): 16 µM (inactive)
- GI50 (RXF 393): 11.7 µM (inactive)
- GI50 (SF-268): 14.5 µM (inactive)
- GI50 (DU-145): 17.4 µM (inactive)
- GI50 (TK-10): 12 µM (inactive)
- GI50 (MDA-MB-435): 14.5 µM (inactive)
- GI50 (OVCAR-5): 13.9 µM (inactive)
- GI50 (MDA-N): 13.6 µM (inactive)
- GI50 (SK-MEL-28): 15 µM (inactive)
- GI50 (MOLT-4): 10.1 µM (inactive)
- GI50 (K562): 13.1 µM (inactive)
- GI50 (NCI-H460): 12.6 µM (inactive)
- GI50 (KM12): 16 µM (inactive)
- GI50 (NCI-H23): 18.6 µM (inactive)
- GI50 (SK-MEL-5): 10.6 µM (inactive)
- GI50 (LOX IMVI): 13.2 µM (inactive)
- GI50 (Malme-3M): 17.8 µM (inactive)
- GI50 (MCF7): 15.6 µM (inactive)
- GI50 (HL-60): 14.1 µM (inactive)
- GI50 (HT-29): 12.4 µM (inactive)
- GI50 (SK-MEL-2): 17.5 µM (inactive)
- GI50 (PC-3): 13.6 µM (inactive)
- GI50 (OVCAR-3): 16 µM (inactive)
- GI50 (SN12C): 15 µM (inactive)
- GI50 (HCC 2998): 11.9 µM (inactive)
- GI50 (SF-539): 18.3 µM (inactive)
- GI50 (HCT-116): 13.7 µM (inactive)
- GI50 (OVCAR-8): 15.8 µM (inactive)
- GI50 (SNB-19): 15.4 µM (inactive)
- GI50 (CCRF-CEM): 11.4 µM (inactive)
- GI50 (UACC-257): 13.9 µM (inactive)
- GI50 (SNB-75): 15.3 µM (inactive)
- GI50 (IGROV-1): 14.6 µM (inactive)
- GI50 (786-0): 13.9 µM (inactive)
- GI50 (HCT-15): 17.4 µM
- GI50 (Hs-578T): 17.4 µM (inactive)
- GI50 (BT-549): 15.4 µM (inactive)
- GI50 (SF-295): 15.6 µM (inactive)
- GI50 (CAKI-1): 14.5 µM (inactive)
- GI50 (T47D): 16.1 µM (inactive)
- GI50 (A498): 10.3 µM (inactive)
- GI50 (SK-OV-3): 14.9 µM (inactive)
- GI50 (MDA-MB-231): 10.3 µM (inactive)
- GI50 (UACC-62): 14.7 µM (inactive)
